Biological target: T1, ERα protein (HiBiT-tagged) in ESR1_HiBiT KI MCF7 cells (Homo sapiens, UniProt P03372)
T1 sequence (P03372 1-595): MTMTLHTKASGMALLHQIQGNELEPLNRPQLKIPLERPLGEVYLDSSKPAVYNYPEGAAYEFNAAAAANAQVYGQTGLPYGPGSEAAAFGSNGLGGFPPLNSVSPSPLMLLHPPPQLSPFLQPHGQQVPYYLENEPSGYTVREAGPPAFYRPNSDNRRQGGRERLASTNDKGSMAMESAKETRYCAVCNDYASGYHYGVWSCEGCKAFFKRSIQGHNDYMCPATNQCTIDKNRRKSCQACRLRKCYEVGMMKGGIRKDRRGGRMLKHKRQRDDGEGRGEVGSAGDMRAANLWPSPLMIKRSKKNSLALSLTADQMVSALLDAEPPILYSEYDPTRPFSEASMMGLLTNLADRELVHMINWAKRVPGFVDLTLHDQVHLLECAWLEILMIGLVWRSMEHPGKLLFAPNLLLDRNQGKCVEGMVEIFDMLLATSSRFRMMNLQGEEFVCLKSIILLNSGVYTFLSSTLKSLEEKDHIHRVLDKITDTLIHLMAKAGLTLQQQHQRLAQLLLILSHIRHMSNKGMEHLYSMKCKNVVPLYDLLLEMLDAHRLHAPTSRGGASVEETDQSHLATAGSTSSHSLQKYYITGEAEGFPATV
Test: Nano Glo HiBiT Lytic Degradation Assay
Format: cell-based
Details: 6 hours with compound, 14-point dose response 1:3, bell-shape curve fit, half-maximal effect of first Hill model, read-out: MCF7 ESR1 HiBiT - (DC50)
Method in brief: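 ESR1_HiBiT knock-in MCF7 cells were seeded 24 h before treatment, then exposed to compounds for 6 h at 37° C (14-point 1:3 curves, 10 mM top stock, 0.1% DMSO final, duplicates). HiBiT-ERα was read by lytic LgBiT luminescence, background-subtracted and normalized to DMSO. DC50 was taken from the half-maximal point of the first Hill component of a bell-shaped fit.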

| SMILES | DC50 [nM] |
| --- | --- |
| O=C1CCC(c2ccc(N3CCC4(CCN(CC5CCN(c6ccc([C@@H]7c8ccc(O)cc8C(F)(F)C[C@@H]7c7ccccc7)cc6)CC5)C4)CC3)cc2)C(=O)N1 (stereo partly drawn) [Compound I-308, 3-(4-(2-((1-(4-((1R,2S)-4,4-difluoro-6-hydroxy-2-phenyl-1,2,3,4-tetrahydronaphthalen-1-yl)phenyl)piperidin-4-yl)methyl)-2,8-diazaspiro[4.5]decan-8-yl)phenyl)piperidine-2,6-dione] | 0.65 |
| O=C1CCC(N2Cc3cc(N4CCN(CC5CCN(c6ccc([C@@H]7c8ccc(O)cc8C(F)(F)C[C@@H]7c7ccc(F)cc7)cc6)CC5)CC4)ccc3C2=O)C(=O)N1 (stereo partly drawn) [Compound I-309, 3-(5-(4-((1-(4-((1R,2S)-4,4-difluoro-2-(4-fluorophenyl)-6-hydroxy-1,2,3,4-tetrahydronaphthalen-1-yl)phenyl)piperidin-4-yl)methyl)piperazin-1-yl)-1-oxoisoindolin-2-yl)piperidine-2,6-dione] | 0.39 |
| O=C1CC[C@@H](N2Cc3cc(N4CCN(CC5CCN(c6ccc([C@@H]7c8ccc(O)cc8C(F)(F)C[C@@H]7c7ccc(F)cc7)cc6)CC5)CC4)ccc3C2=O)C(=O)N1 [Compound I-310, (R)-3-(5-(4-((1-(4-((1R,2S)-4,4-difluoro-2-(4-fluorophenyl)-6-hydroxy-1,2,3,4-tetrahydronaphthalen-1-yl)phenyl)piperidin-4-yl)methyl)piperazin-1-yl)-1-oxoisoindolin-2-yl)piperidine-2,6-dione] | 5.74 |
| O=C1CC[C@H](N2Cc3cc(N4CCN(CC5CCN(c6ccc([C@@H]7c8ccc(O)cc8C(F)(F)C[C@@H]7c7ccccc7F)cc6)CC5)CC4)ccc3C2=O)C(=O)N1 [Compound I-312, (S)-3-(5-(4-((1-(4-((1R,2S)-4,4-difluoro-2-(2-fluorophenyl)-6-hydroxy-1,2,3,4-tetrahydronaphthalen-1-yl)phenyl)piperidin-4-yl)methyl)piperazin-1-yl)-1-oxoisoindolin-2-yl)piperidine-2,6-dione] | 0.37 |
| O=C1CC[C@H](N2Cc3cc(N4CCN(CC5CCN(c6ccc([C@H]7c8ccc(O)cc8C(F)(F)C[C@H]7c7ccc(F)c(F)c7)cc6)CC5)CC4)ccc3C2=O)C(=O)N1 [Compound I-315, (S)-3-(5-(4-((1-(4-((1S,2R)-2-(3,4-difluorophenyl)-4,4-difluoro-6-hydroxy-1,2,3,4-tetrahydronaphthalen-1-yl)phenyl)piperidin-4-yl)methyl)piperazin-1-yl)-1-oxoisoindolin-2-yl)piperidine-2,6-dione] | ≥ 10000 |
| O=C1CC[C@H](N2Cc3cc(N4CCN(CC5CCN(c6ccc([C@@H]7c8ccc(O)cc8C(F)(F)C[C@@H]7c7cc(F)ccc7F)cc6)CC5)CC4)ccc3C2=O)C(=O)N1 [Compound I-316, (S)-3-(5-(4-((1-(4-((1R,2S)-2-(2,5-difluorophenyl)-4,4-difluoro-6-hydroxy-1,2,3,4-tetrahydronaphthalen-1-yl)phenyl)piperidin-4-yl)methyl)piperazin-1-yl)-1-oxoisoindolin-2-yl)piperidine-2,6-dione] | 0.3 |
| O=C1CC[C@H](N2Cc3cc(N4CCN(CC5CCN(c6ccc([C@H]7c8ccc(O)cc8C(F)(F)C[C@H]7c7cc(F)ccc7F)cc6)CC5)CC4)ccc3C2=O)C(=O)N1 [Compound I-317, (S)-3-(5-(4-((1-(4-((1S,2R)-2-(2,5-difluorophenyl)-4,4-difluoro-6-hydroxy-1,2,3,4-tetrahydronaphthalen-1-yl)phenyl)piperidin-4-yl)methyl)piperazin-1-yl)-1-oxoisoindolin-2-yl)piperidine-2,6-dione] | 3 |
| Cc1ccccc1[C@@H]1CC(F)(F)c2cc(O)ccc2[C@@H]1c1ccc(N2CCC(CN3CCN(c4ccc5c(c4)CN([C@H]4CCC(=O)NC4=O)C5=O)CC3)CC2)cc1 [Compound I-323, (S)-3-(5-(4-((1-(4-((1S,2R)-4,4-difluoro-6-hydroxy-2-(o-tolyl)-1,2,3,4-tetrahydronaphthalen-1-yl)phenyl)piperidin-4-yl)methyl)piperazin-1-yl)-1-oxoisoindolin-2-yl)piperidine-2,6-dione] | 33 |
| Cc1cc(F)ccc1[C@H]1CC(F)(F)c2cc(O)ccc2[C@H]1c1ccc(N2CCC(CN3CCN(c4ccc5c(c4)CN([C@H]4CCC(=O)NC4=O)C5=O)CC3)CC2)cc1 [Compound I-326, (S)-3-(5-(4-((1-(4-((1R,2S)-4,4-difluoro-2-(4-fluoro-2-methylphenyl)-6-hydroxy-1,2,3,4-tetrahydronaphthalen-1-yl)phenyl)piperidin-4-yl)methyl)piperazin-1-yl)-1-oxoisoindolin-2-yl)piperidine-2,6-dione] | 0.58 |

Further lines, results first:

| DC50 [nM] | SMILES |
| --- | --- |
| 15 | O=C1CC[C@H](N2Cc3cc(N4CCN(CC5CCN(c6ccc([C@H]7c8ccc(O)cc8C(F)(F)C[C@H]7c7ccccc7F)cc6)CC5)CC4)ccc3C2=O)C(=O)N1 [Compound I-313, (S)-3-(5-(4-((1-(4-((1S,2R)-4,4-difluoro-2-(2-fluorophenyl)-6-hydroxy-1,2,3,4-tetrahydronaphthalen-1-yl)phenyl)piperidin-4-yl)methyl)piperazin-1-yl)-1-oxoisoindolin-2-yl)piperidine-2,6-dione] |
| 0.33 | O=C1CC[C@H](N2Cc3cc(N4CCN(CC5CCN(c6ccc([C@@H]7c8ccc(O)cc8C(F)(F)C[C@@H]7c7ccc(F)c(F)c7)cc6)CC5)CC4)ccc3C2=O)C(=O)N1 [Compound I-314, (S)-3-(5-(4-((1-(4-((1R,2S)-2-(3,4-difluorophenyl)-4,4-difluoro-6-hydroxy-1,2,3,4-tetrahydronaphthalen-1-yl)phenyl)piperidin-4-yl)methyl)piperazin-1-yl)-1-oxoisoindolin-2-yl)piperidine-2,6-dione] |
| 0.33 | O=C1CC[C@H](N2Cc3cc(N4CCN(CC5CCN(c6ccc([C@@H]7c8ccc(O)cc8C(F)(F)C[C@@H]7c7ccc(F)cc7F)cc6)CC5)CC4)ccc3C2=O)C(=O)N1 [Compound I-318, (S)-3-(5-(4-((1-(4-((1R,2S)-2-(2,4-difluorophenyl)-4,4-difluoro-6-hydroxy-1,2,3,4-tetrahydronaphthalen-1-yl)phenyl)piperidin-4-yl)methyl)piperazin-1-yl)-1-oxoisoindolin-2-yl)piperidine-2,6-dione] |
| 108 | O=C1CC[C@H](N2Cc3cc(N4CCN(CC5CCN(c6ccc([C@H]7c8ccc(O)cc8C(F)(F)C[C@H]7c7ccc(F)cc7F)cc6)CC5)CC4)ccc3C2=O)C(=O)N1 [Compound I-319, (S)-3-(5-(4-((1-(4-((1S,2R)-2-(2,4-difluorophenyl)-4,4-difluoro-6-hydroxy-1,2,3,4-tetrahydronaphthalen-1-yl)phenyl)piperidin-4-yl)methyl)piperazin-1-yl)-1-oxoisoindolin-2-yl)piperidine-2,6-dione] |
| 0.56 | Cc1ccccc1[C@H]1CC(F)(F)c2cc(O)ccc2[C@H]1c1ccc(N2CCC(CN3CCN(c4ccc5c(c4)CN([C@H]4CCC(=O)NC4=O)C5=O)CC3)CC2)cc1 [Compound I-322, (S)-3-(5-(4-((1-(4-((1R,2S)-4,4-difluoro-6-hydroxy-2-(o-tolyl)-1,2,3,4-tetrahydronaphthalen-1-yl)phenyl)piperidin-4-yl)methyl)piperazin-1-yl)-1-oxoisoindolin-2-yl)piperidine-2,6-dione] |

Reference: patent US20250388565A1, “ESTROGEN RECEPTOR ALPHA DEGRADERS AND METHODS OF USE THEREOF” (Relay Therapeutics, Inc., priority 2022, published 2025)
